Laboratory results as given in patent publication US20220117938A1, “COMBINATON THERAPY WITH A DON PRODRUG AND AN IMMUNE CHECKPOINT INHIBITOR” (DRACEN PHARMACEUTICALS, INC., priority 2019, published 2022).
pIC50: −log10 of the molar value.

Tested on: Cells
Assay: Cell viability, CTG luminescence, 72 h (Example 7, Experiment 1)
Format: cell-based
Protocol: Cells were cultured in the appropriate medium at 37° C. and 5% CO2 atmosphere. Cells were harvested by trypsinization, spun at 800 rpm for 5 min and resuspended in medium. The cell concentration was adjusted with medium and seeded at a cell density of 3000 cells in 90 μL per well in 96-well plates, and incubated overnight at 37° C. and 5% CO2. After 24 hours, the 1 mM test compound (either Compound 1 or DON) was successively diluted into 7 concentrations according to a three-fold gradient respectively, and 10 μl/well drug was added. The final concentrations were 100 μM, 33.33 μM, 11.11 μM, 3.7 μM, 1.24 μM, 0.41 μM, 0.14 μM, and 0.046 μM. The 100 μM Positive Control drug was successively diluted in 7 concentrations according to a three-fold gradient, and 10 μl/well drug was added. The final concentrations were 10 μM, 3.333 μM, 1.111 μM, 0.37 μM, 0.124 μM, 0.041 μM, 0.014 μM and 0.0046 μM. Cells were incubated for 72 h at 37° C. and 5% CO2. 100 μL CTG reagent was then added to each well. Plates were shaken for 2 min and placed 10 min at room temperature. Luminescence was recorded on Perkin Elmer Envision 2104 Multilabel Reader. IC50's were obtained by fitting curve using GraphPad Prism5 software. In all cases the treatment time was 72 h.

[1] = Homo sapiens, BT-474, 72 h, BT-474
[2] = Homo sapiens, BT-549, 72 h, BT-549
[3] = Homo sapiens, CAPAN-1, 72 h, Capan-1
[4] = Homo sapiens, HCC1395, 72 h, HCC1395
[5] = Homo sapiens, HCC1806, 72 h, HCC1806
[6] = Homo sapiens, HCC1937, 72 h, HCC1937
[7] = Homo sapiens, HCC1954, 72 h, HCC1954
[8] = Homo sapiens, HGC-27, 72 h, HGC-27
[9] = Homo sapiens, HL-60, 72 h, HL60
[10] = Homo sapiens, Huh-7, 72 h, HuH-7
[11] = Homo sapiens, KARPAS-299, 72 h, KARPAS-299
[12] = Homo sapiens, KATO III, KATO-III
[13] = Homo sapiens, LN-18, 72 h, LN-18
[14] = Homo sapiens, MDA-MB-231, 72 h, MDA-MB-231
[15] = Homo sapiens, MDA-MB-361, 72 h, MDA-MB-361
[16] = Homo sapiens, MKN-45, 72 h, MKN-45
[17] = Homo sapiens, MOLT-4, 72 h, MOLT-4
[18] = Homo sapiens, NCI-H23, 72 h, NCI-H23
[19] = Homo sapiens, NCI-H226, 72 h, NCI-H226
[20] = Homo sapiens, NCI-H358, 72 h, NCI-H358
[21] = Homo sapiens, NCI-H661, 72 h, NCI-H661
[22] = Homo sapiens, NCI-H929, 72 h, NCI-H929
[23] = Homo sapiens, NCI-H1299, 72 h, NCI-H1299
[24] = Homo sapiens, NCI-H1650, 72 h, NCI-H1650
[25] = Homo sapiens, OVCAR-3, 72 h, OVCAR-3
[26] = Homo sapiens, RPMI-7951, 72 h, RPMI-7951
[27] = Homo sapiens, SK-MES-1, 72 h, SK-MES-1
[28] = Homo sapiens, SNB-19, 72 h, SNB-19
[29] = Homo sapiens, SNU-449, 72 h, SNU-449
[30] = Homo sapiens, SW480, 72 h, SW480
[31] = Homo sapiens, U-937, 72 h, U-937
[32] = Homo sapiens, ZR-75-1, 72 h, ZR-75-1
[33] = Homo sapiens, ZR-75-30, 72 h, ZR-75-30

Question: How did the pIC50 (AGS) turn out when `CC(=O)N[C@@H](Cc1c[nH]c2ccccc12)C(=O)N[C@@H](CCC(=O)C=[N+]=[N-])C(=O)OC(C)C` [Compound 1, Isopropyl (S)-2-((S)-2-acetamido-3-(1H-indol-3-yl)propanamido)-6-diazo-5-oxohexanoate] was run?
Answer: 4.70

Question: And the pIC50 (C3A)?
Answer: 5.08

Question: And the pIC50 (Homo sapiens, 143B)?
Answer: 5.61

Question: What about the pIC50 (Homo sapiens, 769-P) of the same compound?
Answer: 5.68

Question: What about the pIC50 [1] of the same compound?
Answer: 5.01

Question: And the pIC50 [2]?
Answer: 4.51

Question: And the pIC50 [3]?
Answer: 4.53

Question: What about the pIC50 (Homo sapiens, Daudi) of the same compound?
Answer: 5.97

Question: And the pIC50 [4]?
Answer: 4.22

Question: And the pIC50 [5]?
Answer: 5.41

Question: What about the pIC50 [6] of the same compound?
Answer: 3.81

Question: And the pIC50 [7]?
Answer: 5.48

Question: What about the pIC50 [8] of the same compound?
Answer: 4.88

Question: What about the pIC50 [9] of the same compound?
Answer: 5.69

Question: What about the pIC50 [10] of the same compound?
Answer: 5.89

Question: What about the pIC50 (Homo sapiens, Jurkat) of the same compound?
Answer: 6.18

Question: What about the pIC50 [11] of the same compound?
Answer: 6.20

Question: And the pIC50 [12]?
Answer: 4.97

Question: And the pIC50 [13]?
Answer: 5.38

Question: And the pIC50 [14]?
Answer: 5.54

Question: What about the pIC50 [15] of the same compound?
Answer: 3.93

Question: What about the pIC50 (Homo sapiens, MDA-MB-435S) of the same compound?
Answer: 4.34

Question: What about the pIC50 [16] of the same compound?
Answer: 5.78

Question: What about the pIC50 [17] of the same compound?
Answer: 5.52

Question: What about the pIC50 (Homo sapiens, Malme-3M) of the same compound?
Answer: 4.70

Question: What about the pIC50 [18] of the same compound?
Answer: 5.45

Question: What about the pIC50 [19] of the same compound?
Answer: 4.84

Question: What about the pIC50 (Homo sapiens, NCI-H322M) of the same compound?
Answer: 4.31

Question: And the pIC50 [20]?
Answer: 5.02

Question: And the pIC50 [21]?
Answer: 3.88

Question: And the pIC50 [22]?
Answer: 4.86

Question: And the pIC50 [23]?
Answer: 5.04

Question: What about the pIC50 [24] of the same compound?
Answer: 5.18

Question: What about the pIC50 [25] of the same compound?
Answer: 4.47

Question: What about the pIC50 [26] of the same compound?
Answer: 6.05

Question: And the pIC50 (Homo sapiens, Raji)?
Answer: 5.50

Question: What about the pIC50 (Homo sapiens, SH-SY5Y) of the same compound?
Answer: 5.04

Question: What about the pIC50 [27] of the same compound?
Answer: 4.15

Question: What about the pIC50 [28] of the same compound?
Answer: 5.49

Question: And the pIC50 [29]?
Answer: 4.41

Question: What about the pIC50 [30] of the same compound?
Answer: 4.06

Question: What about the pIC50 (Homo sapiens, T98G) of the same compound?
Answer: 5.47

Question: What about the pIC50 [31] of the same compound?
Answer: 6.09

Question: And the pIC50 [32]?
Answer: 3.86

Question: And the pIC50 [33]?
Answer: 3.55

Question: What about the pIC50 (NAMALWA) of the same compound?
Answer: 5.98

Question: What about the pIC50 (RKO) of the same compound?
Answer: 5.44

Question: And the pIC50 (T84)?
Answer: 3.90

Question: What about the pIC50 (TT) of the same compound?
Answer: 4.11

Question: What about the pIC50 (U266B1) of the same compound?
Answer: 6.35

Question: Which results are given for `[N-]=[N+]=CC(=O)CC[C@H](N)C(=O)O` [DON, 6-Diazo-5-oxo-L-norleucine, reference compound]?
Answer: pIC50 (AGS): 4.86; pIC50 (C3A): 5.62; pIC50 (Homo sapiens, 143B): 5.97; pIC50 (Homo sapiens, 769-P): 5.73; pIC50 [1]: 4.82; pIC50 [2]: 5.24; pIC50 [3]: 4.17; pIC50 (Homo sapiens, Daudi): 6.41; pIC50 [4]: 4.49; pIC50 [5]: 6.14; pIC50 [6]: 3.81; pIC50 [7]: 6.02; pIC50 [8]: 5.00; pIC50 [9]: 5.44; pIC50 [10]: 5.23; pIC50 (Homo sapiens, Jurkat): 6.43; pIC50 [11]: 6.51; pIC50 [12]: 5.53; pIC50 [13]: 5.57; pIC50 [14]: 5.75; pIC50 [15]: 3.63; pIC50 (Homo sapiens, MDA-MB-435S): 4.19; pIC50 [16]: 5.12; pIC50 [17]: 5.62; pIC50 (Homo sapiens, Malme-3M): 4.44; pIC50 [18]: 5.78; pIC50 [19]: 5.73; pIC50 (Homo sapiens, NCI-H322M): 5.32; pIC50 [20]: 6.01; pIC50 [21]: 4.15; pIC50 [22]: 4.93; pIC50 [23]: 5.74; pIC50 [24]: 5.72; pIC50 [25]: 4.51; pIC50 [26]: 5.46; pIC50 (Homo sapiens, Raji): 5.69; pIC50 (Homo sapiens, SH-SY5Y): 5.33; pIC50 [27]: 3.84; pIC50 [28]: 5.69; pIC50 [29]: 5.66; pIC50 [30]: 4.00; pIC50 (Homo sapiens, T98G): 5.86; pIC50 [31]: 6.25; pIC50 [32]: 3.99; pIC50 [33]: 3.01; pIC50 (NAMALWA): 6.48; pIC50 (RKO): 5.49; pIC50 (T84): 4.00; pIC50 (TT): 4.37; pIC50 (U266B1): 6.38
